Experiments:
SK-OV-3 [1] = assay: Cytotoxicity against human SKOV3 cells assessed as reduction in cell viability incubated for 24 hrs by MTT assay; conditions: SK-OV-3, 24 h
SK-OV-3 [2] = assay: Cytotoxicity against human SKOV3 cells assessed as reduction in cell viability incubated for 96 hrs by MTT assay; conditions: SK-OV-3, 96 h
SK-OV-3 [3] = assay: Cytotoxicity against human SKOV3 cells transfected with non-targeted vector assessed as reduction in cell viability incubated for 96 hrs in presence of doxycycline by MTT assay; conditions: SK-OV-3, 96 h
SK-OV-3 [4] = assay: Cytotoxicity against human SKOV3 cells transfected with shRNA assessed as reduction in cell viability incubated for 96 hrs in presence of doxycycline by MTT assay; conditions: SK-OV-3, 96 h
TOV112D [5] = assay: Cytotoxicity against human TOV112D cells transfected with empty vector assessed as reduction in cell viability incubated for 96 hrs by MTT assay
TOV112D [6] = assay: Cytotoxicity against human TOV112D cells expressing NQO2 assessed as reduction in cell viability incubated for 96 hrs by MTT assay
[7] = molecular target: NAD(P)H dehydrogenase [quinone] 1 (Homo sapiens, UniProt P15559); assay: Inhibition of recombinant human NQO1 expressed in Escherichia coli using DCPIP as substrate by spectrophotometry
Sequence of NAD(P)H dehydrogenase [quinone] 1 (P15559 whole entry): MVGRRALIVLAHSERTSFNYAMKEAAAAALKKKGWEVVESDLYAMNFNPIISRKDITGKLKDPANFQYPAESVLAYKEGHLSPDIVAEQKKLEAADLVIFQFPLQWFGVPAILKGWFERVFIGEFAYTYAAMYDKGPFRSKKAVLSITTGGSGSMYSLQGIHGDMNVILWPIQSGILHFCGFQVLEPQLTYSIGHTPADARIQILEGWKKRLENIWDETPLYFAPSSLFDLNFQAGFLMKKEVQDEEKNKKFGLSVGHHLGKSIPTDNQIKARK

Row | IC50 [7] | IC50 ([7]; read-out: IC50) [µM] | SMILES | IC50 (SK-OV-3 [1]) [µM] | IC50 (SK-OV-3 [2]) [µM] | IC50 (SK-OV-3 [3]) [µM] | IC50 (SK-OV-3 [4]) [µM] | IC50 (TOV112D [5]) [µM] | IC50 (TOV112D [6]) [µM]
1 | – | – | COc1ccc2nc(C)cc(N/N=C/c3cccc(OC)c3O)c2c1 | 2.1 | 2 | 2.7 | 2.78 | 3.4 | 3.77
2 | – | – | COc1ccc2nc(C)cc(N/N=C/c3ccccc3)c2c1 | 1.77 | 1.73 | – | – | – | –
3 | – | – | COc1ccc2nc(C)cc(N/N=C/c3ccc(F)cc3)c2c1 | 2.3 | 2.3 | – | – | – | –
4 | Not Active | – | COc1ccc2nc(C)cc(N/N=C/Cc3ccccc3)c2c1 | 50 | 40.7 | 44.7 | 49.7 | 42.5 | 41
5 | – | – | COc1ccc2nc(C)cc(N/N=C/c3ccc(O)cc3)c2c1 | 2.75 | 2.3 | 2.87 | 2.58 | 3.17 | 2.98
6 | – | 0.425 | COc1ccc2nc(-c3ccccc3)cc(N/N=C/c3c[nH]cn3)c2c1 | 2.47 | 2.17 | – | – | – | –
7 | Not Active | – | COc1ccc2nc(C)cc(NNC(=O)c3ccc(F)cc3)c2c1 | > 100 | > 100 | > 100 | > 100 | 61.3 | 57.3
8 | Not Active | – | COc1ccc2nc(-c3ccccc3)cc(N/N=C/c3cccnc3)c2c1 | 2.8 | 2.2 | – | – | – | –
9 | Not Active | – | COc1ccc2nc(-c3ccccc3)cc(N/N=C/c3cccc(OC)c3O)c2c1 | 2.88 | 2.73 | – | – | – | –
10 | – | – | COc1ccc2nc(C)cc(NN)c2c1 | 84 | 41 | – | – | – | –
11 | – | – | COc1ccc2nc(-c3ccccc3)cc(N/N=C/c3ccc(N(C)C)cc3)c2c1 | 1.57 | 1.53 | – | – | – | –
12 | – | – | COc1ccc2nc(C)cc(NNC(=O)c3ccccc3)c2c1 | 68.3 | 43.3 | – | – | – | –
13 | Not Active | – | COc1ccc2nc(C)cc(N/N=C/c3ccc(C(=O)O)cc3)c2c1 | > 100 | 70 | 65 | 61.3 | > 100 | > 100
14 | – | – | COc1ccc2nc(C)cc(N/N=C/c3c[nH]cn3)c2c1 | 32 | 4.2 | 6.9 | 6.73 | 3.65 | 3.72
15 | – | – | Nc1c2ccccc2nc2ccccc12 [AMINACRINE] | 5.43 | 2.78 | 2.53 | 2.57 | 3.6 | 3.15
16 | – | – | Oc1ccc(/C=C/c2cc(O)cc(O)c2)cc1 [RESVERATROL] | 91.7 | 36.3 | 29 | 39.7 | 10.7 | 11
